In US7018796B2, “Preincubation assay methods” (Shionogi & Co., Ltd., priority 2000, dated 2006):

Molecular target: T1, HCV RNA-dependent RNA polymerase (Hepatitis C virus genotype 1a, UniProt P27958)
T1 construct: HCV RNA-dependent RNA polymerase is encoded in the NS5B (nonstructural protein 5B) region of HCV; made in house; host or cells: insect cells or E. coli
Assay: Pre-incubation assay method with 3H-UTP (Example 1)
Assay type: biochemical
Procedure: A HCV RNA-dependent RNA polymerase, template RNA, primer RNA and Mg ion (Mg^2+) are pre-incubated at approximately 25° C. for approximately 1 hour. After that, substrate RNA and a test substance are added to start an enzyme reaction and measure an enzyme activity. IC50 value can be calculated by comparing with an enzyme activity measured in the absence of a test substance as well as the above prior method. An inhibitor can be selected by comparing IC50. An example of a procedure of this method is shown in the later described Example 1.
A cDNA encoding HCV RNA-dependent RNA polymerase was made by use of HCV positive human plasma and HCV RNA-dependent RNA polymerase was expressed using the insect cells or the E. coli. HCV RNA-dependent RNA polymerase in the cell extract was purified by use of an anion exchange chromatography, a heparin affinity chromatography, a polyU affinity chromatography, a cation exchange chromatography and gel filtration chromatography. The purification was performed at 4° C. and Tris buffer (pH 7.5) containing ethylenediaminetetraacetic acid (1 mM), dithiothreitol (10 mM) and glycerol (20%) was used. The enzyme purified was stored at 4° C. until use for the assays.
• 1) The buffer I ^1) (10.5 μl) containing Tris-HCl (100 mM, pH 7.5), MgCl2 (25 mM), dithiothreitol (5 mM), KCl (125 mM) and ethylenediaminetetraacetic acid (5 mM) was transferred to a polypropylene tube and then poly(A)^2) solution (100 μg/ml, 10.5 μl), oligo(U)12 ^3) solution (1 μg/ml, 10.5 μl) and water (8 μl) were added into the tube and mixed. • 2) Next, HCV RNA-dependent RNA polymerase (10.5 μl) was added into the tube and pre-incubated at 25° C. for […]. • 3) The enzyme solution pre-incubated (50 μl) was added to a test compound (5.26 μl/well) dissolved with dimethyl sulfoxide or water in a well of a 96-wells microtiter plate. • 4) Additionally, the buffer II (10.6 μl) containing Tris-HCl (100 mM, pH 7.5), MgCl2 (25 mM), dithiothreitol (5 mM), KCl (125 mM), ethylenediaminetetraacetic acid (5 mM) and UTP • 4) (2.1 μM, 1 μCi ^3H-UTP), was mixed with water (39.4 μl). The mixture (50 μl) was added into the well and mix, and then the enzyme reaction was performed at 25° C. for 30 min. • 5) After enzyme reaction for 30 min, the enzyme reaction was stopped by adding disodium ethylenediaminetetraacetic acid (50 mM, 50 μl). • 6) By use of the cell-harvester, all volume of the enzyme reaction sample was transferred onto a filtermat bound with diethylaminoethyl base (referred to as DEAE-filtermat) and washed twice for 10 sec with sodium phosphate buffer (0.25 M, pH 7.0) and once for 10 sec with de-ionized water. • 7) The DEAE-filtermat was dried at 95° C. for 15 min and transferred into a sample bag with liquid scintillater (10 ml), and then a sample bag was sealed. • 8) The radio activity was measured by a scintillation counter. • 9) The inhibitory rate was calculated from the radioactivity measured (ccpm) as follows. [formula]
The concentration of compound at 50% inhibition (IC50 value) was calculated from the compound concentration used and the inhibitory rate calculated.
When use of a compound at a μg/ml results in A % inhibition and use of a compound at β μg/ml results in B % inhibition on condition of A≧50>B the IC50 value is obtained by the calculation as follows. IC50 (μg/ml)=10^[(50−B)/(A−B)×(log^α^−log^β^)+log^β^]

[1] = with pre-incubation, I-1 0.5 μg/ml, 3′-dUTP 0.7 μM, A 100 μg/ml, B 50 μg/ml, C 25 μg/ml

T1 sequence (P27958 2421-3011): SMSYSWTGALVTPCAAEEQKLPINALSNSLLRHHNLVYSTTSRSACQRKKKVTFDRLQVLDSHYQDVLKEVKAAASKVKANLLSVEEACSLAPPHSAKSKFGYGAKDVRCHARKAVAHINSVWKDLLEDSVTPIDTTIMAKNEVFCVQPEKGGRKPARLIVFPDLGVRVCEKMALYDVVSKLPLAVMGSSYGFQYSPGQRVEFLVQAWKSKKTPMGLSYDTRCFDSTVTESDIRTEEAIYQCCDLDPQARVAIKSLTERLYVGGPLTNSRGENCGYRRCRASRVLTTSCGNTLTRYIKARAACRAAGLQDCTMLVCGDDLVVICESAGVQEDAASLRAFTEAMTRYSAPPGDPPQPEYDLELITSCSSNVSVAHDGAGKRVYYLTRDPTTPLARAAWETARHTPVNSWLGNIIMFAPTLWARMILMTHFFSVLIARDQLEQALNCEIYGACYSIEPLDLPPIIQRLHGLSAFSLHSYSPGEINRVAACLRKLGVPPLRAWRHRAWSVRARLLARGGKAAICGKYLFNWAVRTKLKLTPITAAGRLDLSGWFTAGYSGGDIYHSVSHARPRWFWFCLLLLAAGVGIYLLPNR

Row | Structure (SMILES) | Inhibitory rate (Table 2) [1] [%] | Enzyme inhibition rate in a pre-incubation assay method (FIG. 5) (with pre-incubation, same concentrations as) | Judgement in the pre-incubation method (positive / negative) (with pre-incubation) | inhibition at 100 µg/mL (100 μg/ml, pre-incubation 25° C. 60 min, method of Example 1, read-out: Inhibition rate at a concentration of 100 μg/ml) [%] | IC50 (pre-incubation 25° C. 60 min, method of Example 1) [µM] | inhibition at 0.5 µg/mL (with pre-incubation, I-1 0.5 μg/ml, 3′-dUTP 0.7 μM, A 100 μg/ml, B 50 μg/ml, C 25 μg/ml, read-out: Inhibitory rate (Table 2)) [%]
1 | O=c1ccn([C@@H]2O[C@H](COP(=O)(O)OP(=O)(O)OP(=O)(O)O)C[C@H]2O)c(=O)[nH]1 [3′-dUTP, 3′-deoxyuridine triphosphate] | 79 | does not change | – | – | – | –
2 | Cc1oc(-c2ccccc2)nc1CCOc1ccc(C=C2C(=O)NC(=O)NC2=O)cc1 [Compound A] | 19 | – | negative | – | – | –
3 | O=C1NC(=O)C(=Cc2ccc(OCCc3cccc4ccccc34)cc2)C(=O)N1 [Compound B] | 1 | – | negative | – | – | –
4 | CCCCC1=N/C(=C\c2ccccc2OCC(=O)O)C(=O)N1Cc1ccc(-c2ccccc2-c2nnn[nH]2)cc1 [Compound C] | 2 | – | negative result | – | – | –
5 | O=C(O)/C(O)=C/C(=O)c1cccc(O)c1 [Compound I-1] | – | – | positive result | > 99 | 1.92 | 62
